The source of these data is US9212205B2, “Nucleic acid binding compounds and methods of use” (University of Rochester, priority 2007, dated 2015).

SMILES strings stand for the structures. Where two headings read alike, the source gives them in different places.

The target in experiment [1] is (CUG) repeat RNA SEQ ID NO:7. The experiment is described as follows: Filter binding assay (FBA), SEQ ID NO:7. The settings on record: FBA, read-out: KD. As to the method:
(§1) A filter binding assay system was utilized to provide a rapid initial assessment of binding affinity. All binding studies were performed in PBS pH 7.2+1 mM MgCl2 at 22° C. Various concentrations of small molecules were incubated with 10 nM FAM-labeled RNA in a total volume of 50 μl for 20 minutes. A slot blot apparatus was then assembled with a wet nitrocellulose filter, on top of a wet nylon filter, on top of filter paper. 40 μl of each binding mixture was then loaded into an individual well of the apparatus and allowed to penetrate the filters for 10 minutes. The peptidic disulfides selected from the DCL efficiently bind to the nitrocellulose filter. In contrast, the FAM-labeled RNA strands penetrate the nitrocellulose filter and are bound by the nylon filter. As such, RNA bound by the peptidic library members remains bound on the nitrocellulose filter, and unbound RNA passes to the nylon filter.
(§2) Densitometric analysis of the ratio of labeled RNA on the nitrocellulose to nylon filters allows quantification of binding (FIG. 15A). All binding isotherms were fit to the logistic binding model (Equation 1 above). The repetitive nature of the target sequences may in some cases result in binding stoichiometries that are more complex than a simple 1:1 interaction.
(§3) To test specificity and to confirm the determined binding affinities, filter binding assays and fluorescence titrations were performed with SEQ ID NOS: 7-11 (Table 5), and the HIV-1 frameshift stimulating RNA hairpin used in preceding Examples (SEQ ID NO:1, Table 5). Fluorescence titrations were performed using a Varian Cary Eclipse spectrophotometer. 2 μl of 50 or 500 μM small molecule were titrated into 400 μl of FAM labeled RNA sequences an allowed to equilibrate for at least 10 minutes, or until no change in fluorescence spectra was observed. Changes in fluorescence emission at 518 nm (excitation at 490 nm) were measured. Raw data were corrected for dilution dependant changes, and Em518 was plotted against small molecule concentration and fit to the one site binding equation y=(bmaz*x)/(KD+x).) Competition experiments utilizing target RNA (SEQ ID NO:7) and a 20-fold molar excess of total yeast tRNA were performed to measure non-specific RNA binding (Luedtke et al., “RNA-Ligand Interactions: Affinity and Specificity of Aminoglycoside Dimers and Acridine Conjugates to the HIV-1 Rev Response Element,” Biochemistry 42:11391-11403 (2003), which is hereby incorporated by reference in its entirety). Compound 1-1, the HIV-1 RNA ligand, served as a negative control.

The target in experiment [2] is (CUG) loop RNA (SEQ ID NO:11). The experiment is described as follows: Fluorescence titration (FT), SEQ ID NO:11. It counts as binding. Also on record: key: NC = Not Calculable.; NS = Not Saturatable. As to the method:
as §3

Experiment [3] addresses (CUG)/(CAG) complimentary RNA (SEQ ID NO:10). Nature of the experiment: Filter binding assay (FBA), SEQ ID NO:10. On the procedure: as §1, §2, §3
Experiment [4] has as its target HIV-1 frameshift stimulating RNA hairpin (SEQ ID NO:1). Nature of the experiment: Filter binding assay (FBA), SEQ ID NO:1. As to the method:
as §1, §2, §3

Experiment [5] concerns the target (CUG) loop RNA (SEQ ID NO:11). The experiment is described as follows: Filter binding assay (FBA), SEQ ID NO:11. As to the method: as §1, §2, §3
Experiment [6] addresses (CUG)109 RNA (SEQ ID NO:8). The experiment is described as follows: Filter binding assay (FBA), SEQ ID NO:8. On the procedure:
as §1, §2

Experiment [7] deals with variant (CUG) stem RNA (SEQ ID NO:9). The experiment is described as follows: Fluorescence titration (FT), SEQ ID NO:9. The format is binding. On the procedure:
as §3

For experiment [8], the target named is (CUG)/(CAG) complimentary RNA (SEQ ID NO:10). Nature of the experiment: Fluorescence titration (FT), SEQ ID NO:10. It counts as binding. Also on record: key to KD: NC = Not Calculable.; NS = Not Saturatable. On the procedure: as §3
Experiment [9] has as its target variant (CUG) stem RNA (SEQ ID NO:9). The experiment is described as follows: Filter binding assay (FBA), SEQ ID NO:9. On the procedure:
as §1, §2, §3

Experiment [10] has as its target (CUG) repeat RNA SEQ ID NO:7. The experiment is described as follows: Fluorescence titration (FT), SEQ ID NO:7. It counts as binding. As to the method:
as §3

Experiment [11] deals with HIV-1 frameshift-inducing RNA stem-loop (SEQ ID NO:1). The experiment is described as follows: Fluorescence titration of Cy-3 labeled HIV-1 RNA stem-loop. The format is binding. The settings on record: stem-loop 4 × 10^−7 M, PBS buffer, 25° C. On the procedure: The binding of dicarba analogs to the HIV-1 frameshift-inducing RNA was measured using fluorescence spectroscopy. Fluorescence titrations were performed on a Varian Cary eclipse fluorescence spectrophotometer using 1 cm path-length quartz fluorescence cell. The solution of Cy-3 labeled HIV-1 RNA stem-loop in PBS buffer (400 μL, 400 nM) was taken in the cell and excited with a wavelength of 550 nm. A PMT voltage of 715 V was used for collecting the fluorescence data and the emission spectrum was collected from 555 to 600 nm wavelength range. The ligand solution in PBS buffer was added to the target RNA in the cell in either 2 or 4 μL increments and was allowed to equilibrate for 10 minutes before recording the emission spectrum. Statistical analysis of the data was carried out using Origin 7 (OriginLab corporation). Binding constants were determined by fitting the data to one-site binding model equation.
A 5′-Cy3 labeled upper stem-loop of HIV-1 RNA (SEQ ID NO:1) was titrated with increasing amount of the dicarba analogs in a phosphate buffer (PBS, pH 7.4) using the same protocol to that described in Example 3 above. The fluorescence intensity of the labeled RNA stem-loop decreased as a function of the ligand concentration. […] Normally, one would expect a greater difference between the affinities of the two isomers.
To further evaluate the binding selectivity of dicarba analogs to the frameshift-inducing stem-loop, fluorescence titrations were repeated in the presence of twenty-fold excess concentration of yeast tRNA. […] In an interesting result it was discovered that the monomeric compound (5) also bound to the HIV-1 RNA stem-loop with similar affinity as that of the other analogs, but the binding affinity was diminished in the presence of tRNA. […] Quinoline is a known intercalator of nucleotide bases and has the capability to interact with RNA non-specifically. But it is the peptidic part of the molecule in ligands 5-5 E and 5-5 Z that imparts specificity to the interaction between the ligand and the RNA stem-loop. The peptidic part on monomer 5 is insufficient to impart specificity to the interaction as evident from the results.

Experiment [12] has as its target (CUG)109 RNA (SEQ ID NO:8)-MBNL1 protein interaction. Nature of the experiment: Enzyme Fragmentation Complementation (EFC) assay of (CUG)109-MBNL1 binding inhibition. It counts as biochemical. On the procedure: Small molecule-mediated inhibition of (CUG)109-MBNL1 binding was determined using an Enzyme Fragmentation Complementation (EFC) assay (Eglen et al., “β-Galactosidase Enzyme Fragment Complementation as A Novel Technology for High Throughput Screening,” Comb. Chem. High Throughput Screening 6:381-387 (2003), which is hereby incorporated by reference in its entirety). Briefly, this was performed by first immobilizing (CUG)109 RNA (SEQ ID NO:8) to a 96 well plate. Next, the immobilized RNA was incubated with recombinant MBNL1 fused to the PL enzyme donor peptide (PL-MBNL1, where “PL” is the commercial “ProLabel” enzyme donor peptide) (DiscoveRx PathHunter ProLabel Detection kit) in the presence of varying concentrations of small molecule inhibitor. The Enzyme Acceptor (EA-β-galactosidase) complement was then added, and the activity of the resulting plate—(CUG)109 bound (PL-MBNL1)-(EA-β-galactosidase) activity was monitored via a chemiluminsecent substrate. Only the EA-β-Gal bound to the PL-MBNL1 is capable of performing the luminescent reaction and, as such, any luminescence correlates to the amount of MBNL1 bound to the (CUG)109 immobilized on the plate. Wells lacking (CUG)109 RNA served as a background measure of non-specific luminescence and were subtracted from each experiment to yield a 0% bound value. Wells containing no small molecule inhibitor added served as 100% bound. […]

Where [13] appears, read: fluorescence titration, read-out: Binding Affinity (Kd).
Where [14] appears, read: 8 μM tRNA (twenty-fold excess), read-out: Binding Affinity (Kd) in the presence of excess yeast tRNA.

Take `NCCCC[C@H](NC(=O)[C@H](CSSC[C@H](NC(=O)[C@@H]1CCCN1C(=O)c1ccc2c(c1)OCO2)C(=O)N[C@@H](CCCCN)C(=O)NCCCN)NC(=O)[C@@H]1CCCN1C(=O)c1ccc2c(c1)OCO2)C(=O)NCCCN` [dimer 8-8]: the Kd (as a rule, the equilibrium constant for the complex coming apart) was 14 ± 4 µM in experiment [1] (SEQ ID NO: 7 + 20 x tRNA); 5.4 ± 0.6 µM in experiment [1] (SEQ ID NO: 7); 21 ± 1.4 µM in experiment [3]; 41 ± 9 µM in experiment [4]; 7.5 ± 0.9 µM in experiment [5]; 2.5 µM in [6]. Moreover, the Kd in experiment [7] amounted to 2.1 µM; in experiment [9], 9.3 ± 0.4 µM; in experiment [10] (SEQ ID NO: 7), 1.4 µM; in experiment [10] (SEQ ID NO: 7 + 20 x tRNA) it was 2.4 µM. The KD entry in experiment [2] and in [8] was “NC” each time.

Turning to `C=CC[C@H](NC(=O)c1cc2ccccc2nc1CC)C(=O)N1CCC[C@H]1C(=O)N[C@@H](Cc1ccccc1)C(=O)NCCCN` [monomer 5], in experiment [11] (8 μM tRNA (twenty-fold excess)), the “Binding Affinity (Kd) in the presence of excess yeast tRNA” value was “No binding”. Further, the Kd in [11] (setting [13]) stood at 0.37 ± 0.02 µM.

Regarding `NCCCCC(NC(=O)C(CSSCC(NC(=O)C(CC(N)=O)NC(=O)c1ccc2c(c1)OCO2)C(=O)NC(CCCCN)C(=O)NCCCN)NC(=O)C(CC(N)=O)NC(=O)c1ccc2c(c1)OCO2)C(=O)NCCCN` (stereo not shown) [dimer 6-6], the “Ki, inhibition of the (CUG)n MBNL1 interaction” value in [12] is recorded as “do not show any inhibitory effect”.

With `CCc1nc2ccccc2cc1C(=O)N[C@@H](C/C=C/C[C@H](NC(=O)c1cc2ccccc2nc1CC)C(=O)N1CCC[C@H]1C(=O)N[C@@H](Cc1ccccc1)C(=O)NCCCN)C(=O)N1CCC[C@H]1C(=O)N[C@@H](Cc1ccccc1)C(=O)NCCCN` [dimer 5-5 E], the Kd in experiment [11] (setting [14]) is 0.45 ± 0.09 µM; in experiment [11] (setting [13]), 0.41 ± 0.02 µM.

For the compound `CCc1nc2ccccc2cc1C(=O)N[C@@H](C/C=C\C[C@H](NC(=O)c1cc2ccccc2nc1CC)C(=O)N1CCC[C@H]1C(=O)N[C@@H](Cc1ccccc1)C(=O)NCCCN)C(=O)N1CCC[C@H]1C(=O)N[C@@H](Cc1ccccc1)C(=O)NCCCN` [dimer 5-5 Z], the Kd in [11] (setting [14]) amounted to 0.29 µM; in [11] (setting [13]) it was 0.24 ± 0.05 µM.

For the compound `CCc1nc2ccccc2cc1C(=O)N1CCC[C@H]1C(=O)N[C@@H](CSSC[C@H](NC(=O)[C@@H]1CCCN1C(=O)c1cc2ccccc2nc1CC)C(=O)N[C@@H](CCCCN)C(=O)NCCCN)C(=O)N[C@@H](CCCCN)C(=O)NCCCN` [dimer 9-9], the Kd was 18 ± 2.1 µM in experiment [1] (SEQ ID NO: 7 + 20 x tRNA); 6.7 ± 0.2 µM in experiment [1] (SEQ ID NO: 7); more than 40 µM in experiment [3]; 24 ± 5 µM in experiment [4]; 8.5 ± 0.1 µM in experiment [5]; 2.1 µM in experiment [6]. Further, the Kd in experiment [7] is 1.7 µM; in [8], 17 µM; in experiment [9], 7.1 ± 1.1 µM; in [10] (SEQ ID NO: 7), 2.2 µM; in experiment [10] (SEQ ID NO: 7 + 20 x tRNA), 3.4 µM. For the same compound, in [2], the KD entry was “NS”.

On to `CCc1nc2ccccc2cc1C(=O)N[C@@H](CC(N)=O)C(=O)N[C@@H](CSSC[C@H](NC(=O)[C@@H]1CCCN1C(=O)c1cc2ccccc2nc1CC)C(=O)N[C@@H](CCCCN)C(=O)NCCCN)C(=O)N[C@@H](CCCCN)C(=O)NCCCN` [dimer 7-9], for which the Kd in [1] (SEQ ID NO: 7 + 20 x tRNA) was found to be 10 ± 0.7 µM; in [1] (SEQ ID NO: 7) it was 4.5 ± 0.6 µM; in experiment [3], 19.5 ± 1 µM; in experiment [4], 22 ± 2 µM; in [5], 4.6 ± 0.1 µM; in experiment [6], 2.1 µM. For the same compound, the Kd was determined as 1.6 µM in experiment [7], 6.4 ± 1 µM in experiment [9], 2.1 µM in experiment [10] (SEQ ID NO: 7) and 2.9 µM in [10] (SEQ ID NO: 7 + 20 x tRNA). For the same compound, the KD entry in experiment [2] and in [8] was “NC” in each case.

As to `CCc1nc2ccccc2cc1C(=O)N1CCC[C@H]1C(=O)N[C@@H](CSSC[C@H](NC(=O)[C@@H]1CCCN1C(=O)c1ccc2c(c1)OCO2)C(=O)N[C@@H](CCCCN)C(=O)NCCCN)C(=O)N[C@@H](CCCCN)C(=O)NCCCN` [dimer 8-9], the Kd in experiment [1] (SEQ ID NO: 7 + 20 x tRNA) is 9.6 ± 0.7 µM; in experiment [1] (SEQ ID NO: 7) it was 4.1 ± 0.2 µM; in [3], 21 ± 1.8 µM; in experiment [4] it was 16 ± 4 µM; in [5], 6 ± 0.1 µM; in [6], 1.9 µM. In addition, the Kd was found to be 2.6 µM in [7], 4.7 ± 0.1 µM in experiment [9], 2.1 µM in experiment [10] (SEQ ID NO: 7) and 4.2 µM in [10] (SEQ ID NO: 7 + 20 x tRNA). Moreover, the KD result in experiment [2] and in experiment [8] was “NC” each time.
